Source: patent US6849409B2, “Cellular kinases involved in Cytomegalovirus infection and their inhibition” (Axxima Pharmaceuticals AG, priority 2000, dated 2005)

Legend:
HCMV = HCMV inhibition (virus replication assay, plaque assay, GFP infection assay or indirect immunofluorescence analysis); format: cell-based; conditions: Human betaherpesvirus 5, read-out: IC50 HCMV
Description: (§1) To perform initial tests for compounds that inhibit RICK activity in a cellular assay, RICK was transiently overexpressed in HEK-293 cells, immunoprecipitated and incubated with different concentrations of test compounds before in-vitro kinase assays were performed (Example 10). According to the method for identifying compounds useful for inhibiting the cellular kinase RICK and therefore useful for treating and/or preventing Cytomegalovirus infection and/or diseases associated with Cytomegalovirus infection, a test compound is contacted with the cellular kinase RICK according to the RICK assay protocol disclosed in example 10. The test compound dissolved in DMSO is added to the RICK assay solution at concentrations between 100 nM and 50 μM. Thereafter, radioactively labeled ATP is added and kinase activity of RICK is determined by detecting the autophosphorylation of RICK via radioactivity measurement. The five compounds listed in the following Table 1 were identified using said method. […] The IC50 values of HCMV inhibition were obtained by the use of at least one assay protocol selected from a) virus replication assay, b) plaque assay, c) GFP (Green Fluorescent Protein) infection assay, and d) indirect immunofluorescence analysis as disclosed in example 12. Thus, the five compounds A to E mentioned below and/or pharmaceutically acceptable salts thereof can be used as inhibitors of the cellular protein kinase RICK and as pharmaceutically active compounds for the treatment and/or prophylaxis of HCMV infection. Furthermore, these compounds are suitable for the manufacture of a pharmaceutical composition for prophylaxis and/or treatment of Cytomegalovirus infection and/or diseases associated therewith.
(§2) To perform initial tests for compounds that inhibit RIP activity in a cellular assay, RIP was transiently overexpressed in HEK-293 cells, immunoprecipitated and incubated with different concentrations of test compounds before in-vitro kinase assays were performed (Example 11). In order to identify compounds suitable for inhibiting the cellular kinase RIP and, thus, suitable for treating and/or preventing Cytomegalovirus infection and/or diseases associated with Cytomegalovirus infection the inventive method according to claim 1 was used. A test compound was contacted with the cellular kinase RIP according to the RIP assay protocoll disclosed in example 11. The test compound dissolved in DMSO is added to the RIP assay solution at concentrations between 100 nM and 50 μM. Radioactively labeled ATP was used as co-substrate of RIP and auto-phosphorylation was detected via measurement of incorporation of radioactivity into the RIP protein. Thereafter, phosphorylation rates with and without test compounds were compared. […] The IC50 values of HCMV inhibition were obtained by the use of at least one assay protocol selected from a) virus replication assay, b) plaque assay, c) GFP infection assay, and d) indirect immunofluorescence analysis as disclosed in example 12.
Primary human foreskin fibroblasts (HFF) were cultivated in MEM containing 5% (v/v) fetal calf serum. Infection analysis was restricted to cell passage numbers below twenty. Human cytomegalovirus strain AD169 (ATCC) was grown in HFF cells and quantitated for infectivity by the plaque reduction assay. Aliquots were stored at −80° C.
HFF cells were cultivated in 12-well plates to 90-100% confluency and used for infection with dilutions of virus-positive cell culture supernatants. Virus inoculation was performed for 90 min at 37° C. under occasional shaking before virus was removed and the cell layers were rinsed with PBS. Overlays of MEM 5% (v/v) fetal calf serum and 0.3% (w/v) agarose were added to each well and all samples were incubated at 37° C. in a 5% CO2 atmosphere for approximately 12 days. Finally, overlays were removed and the formation of foci was visualized by staining with 1% crystal violet in 20% ethanol for 1 min. […]

RIP = target: T1, RIP (Homo sapiens, UniProt Q13546); test: RIP-kinase assay (autophosphorylation of immunoprecipitated RIP-HA, radioactively labeled ATP); format: biochemical; conditions: in-vitro kinase assay, compound 100 nM to 50 μM, 30 min at 30° C.
T1 construct: made in house; host or cells: HEK 293 (transient transfection, pcDNA3), immunoprecipitated with anti-HA antibody
T1 sequence (Q13546 1-671 A438V): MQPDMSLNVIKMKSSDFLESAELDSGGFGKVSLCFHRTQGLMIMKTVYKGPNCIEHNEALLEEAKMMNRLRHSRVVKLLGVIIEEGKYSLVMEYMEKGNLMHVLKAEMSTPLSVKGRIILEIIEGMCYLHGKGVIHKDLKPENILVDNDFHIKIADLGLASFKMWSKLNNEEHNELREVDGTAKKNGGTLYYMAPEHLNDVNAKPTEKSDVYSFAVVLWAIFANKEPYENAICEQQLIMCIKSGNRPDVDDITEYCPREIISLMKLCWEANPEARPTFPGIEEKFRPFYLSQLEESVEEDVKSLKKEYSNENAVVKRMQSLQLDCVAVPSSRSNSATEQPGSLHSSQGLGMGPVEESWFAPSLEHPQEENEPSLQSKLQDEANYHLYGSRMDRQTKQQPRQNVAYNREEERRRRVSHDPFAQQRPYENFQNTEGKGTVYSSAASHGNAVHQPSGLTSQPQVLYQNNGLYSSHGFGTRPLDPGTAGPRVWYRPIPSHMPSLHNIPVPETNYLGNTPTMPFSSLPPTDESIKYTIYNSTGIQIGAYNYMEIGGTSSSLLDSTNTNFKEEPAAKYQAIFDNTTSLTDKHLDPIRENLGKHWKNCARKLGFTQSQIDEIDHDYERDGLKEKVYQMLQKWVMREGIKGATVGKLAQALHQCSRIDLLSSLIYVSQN
Description: as §2
To obtain active RIP kinase the human RIP-cDNA was fused with a DNA sequence coding for the HA-tag and cloned into the eucaryotic expression vector pcDNA3 (Invitrogene). This construct was transfected into human embryonic kidney cells (HEK 293) via the calcium-phosphate DNA co-precipitation method. Two days after transfection cells were washed with PBS and harvested and lysed in lysis-buffer (150 mM NaCl, 1 mM EDTA, 1% Tritron X-100, 20 mM Tris-HCl pH 7.5 and freshly added: 30 mM NaF, 10 μg/ml Aprotinine, 10 μg/ml Leupeptine, 2 mM Na-pyrophosphate). […] Phosphorylation products were analyzed by SDS-PAGE and autoradiography (x-ray film and phosphor imager).

RICK = target: T2, RICK (Homo sapiens, UniProt O43353); test: RICK-kinase assay (autophosphorylation of immunoprecipitated RICK-HA, radioactively labeled ATP); format: biochemical; conditions: in-vitro kinase assay, compound 100 nM to 50 μM, 30 min at 30° C.
T2 construct: made in house; host or cells: HEK 293 (transient transfection, pcDNA3), immunoprecipitated with anti-HA antibody
T2 sequence (O43353 whole entry): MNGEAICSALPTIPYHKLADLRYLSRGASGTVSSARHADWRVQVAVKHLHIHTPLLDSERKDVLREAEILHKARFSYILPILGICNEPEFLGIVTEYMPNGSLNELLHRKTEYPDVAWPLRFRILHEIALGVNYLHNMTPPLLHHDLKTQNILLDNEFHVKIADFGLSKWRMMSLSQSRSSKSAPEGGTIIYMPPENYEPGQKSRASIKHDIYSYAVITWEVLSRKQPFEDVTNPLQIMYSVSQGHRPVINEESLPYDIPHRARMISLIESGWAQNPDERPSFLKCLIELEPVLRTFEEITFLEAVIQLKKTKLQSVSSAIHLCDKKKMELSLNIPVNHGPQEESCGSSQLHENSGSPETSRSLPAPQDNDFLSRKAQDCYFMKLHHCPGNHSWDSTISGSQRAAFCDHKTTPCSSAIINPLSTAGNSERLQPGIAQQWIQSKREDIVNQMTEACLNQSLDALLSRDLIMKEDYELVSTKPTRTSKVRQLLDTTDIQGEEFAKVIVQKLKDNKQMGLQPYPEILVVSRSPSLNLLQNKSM
Description: as §1
To obtain active RICK kinase the human RICK-cDNA was fused with a DNA sequence coding for the HA-tag and cloned into the eucaryotic expression vector pcDNA3 (Invitrogene). This construct was transfected into human embryonic kidney cells (HEK 293) via the calcium-phosphate co-precipitation method. One day after transfection medium was replaced by fetal calf serurum-free medium and two days after transfection cells were washed with PBS and harvested and lysed in RIPA-buffer (150 mM NaCl, 1 mM EDTA, 1% Tritron X-100, 1% Na-desoxycholate, 0.1% SDS, 10 mM Tris-HCl pH 7.5). The RICK-HA fusion protein was immunoprecipitated from 250 μl cleared lysate (i.e. lysate of one well of a six-well plate) utilizing an anti-HA antibody from Roche Pharmaceuticals and Protein A sepharose. After addition of 500 μl of HNTG-buffer (50 mM HEPES pH 7.5, 150 mM NaCl, 1 mM EDTA, 10% glycerine, 0.1% Triton X-100) the sample was rotated for 3 hrs at 4° C. After washing the immunoprecipitate twice with 0.5 ml HNTG-buffer and twice with 0.5 ml assay-buffer (25 mM Tris-HCl pH 7.5, 3 mM MgCl2, 0.5 mM MnCl2, 0.5 mM DTT and 50 mM NaCl), the kinase reaction was performed directly on the beads in 40 μl assay buffer containing 2.5 μCi γ[^33P]-ATP and various concentrations (between 100 nM and 50 μM) of compounds of Table 1. After 30 min at 30° C., the reaction was stopped by addition of 40 μl 3×Laemmli-buffer (16% glycerol, 1.01M β-mercaptoethanol, 5% SDS, 200 mM Tris/HCl pH 6.8, 8% bromphenolblue). Phosphorylation products were analyzed by SDS-PAGE and auroradiography (x-ray film and phosphor imager).

SMILES | IC50 (HCMV) [µM] | IC50 (RIP) [µM] | IC50 (RICK) [µM]
O=C1NC(=O)c2ccccc2/C1=C/c1ccnc2ccccc12 [Compound H, 4-Quinolin-4-ylmethylene-4H-isoquinoline-1,3-dione] | 12 | 5 | –
CCOc1cc2ncnc(Nc3cccc(Br)c3)c2cc1OCC [Compound D, (3-Bromophenyl)-(6,7-diethoxyquinazolin-4-yl)-amine] | 7.6 | – | 0.5
Cn1c(=O)c(-c2c(Cl)cccc2Cl)cc2cnc(NCCCN3CCOCC3)nc21 [Compound A, 6-(2,6-Dichlorophenyl)-8-methyl-2-(3-morpholin-4-yl-propylamino)-8H-pyrido[2,3-d]pyrimidin-7-one] | 6.8 | – | 1
Cn1c(=O)c(-c2ccccc2)cc2cnc(Nc3ccncc3)nc21 [Compound B, 8-methyl-6-phenyl-2-(pyridin-4-yl-amino)-8H-pyrido[2,3-d]pyrimidin-7-one] | 1.4 | – | 0.5
O=C1Nc2ccc(Cl)cc2/C1=C/c1ccc[nH]1 [Compound G, 5-Cloro-3-(1H-pyrrol-2-ylmethylene)-1,3-dihydroindol-2-one] | 15 | 10 | –
CN1CCN(CCCNc2ncc3cc(-c4c(Cl)cccc4Cl)c(=O)n(C)c3n2)CC1 [Compound C, 6-(2,6-Dichlorophenyl)-8-methyl-2-[3-(4-methylpiperazin-1-yl)-propylamino]-8H-pyrido[2,3-d]pyrimidin-7-one] | 6.2 | – | 1
COc1cc2ncnc(Nc3cccc(Br)c3)c2cc1OC [Compound E, (3-Bromophenyl)-(6,7-dimethoxyquinazolin-4-yl)-amine] | 5.7 | – | 0.5
O=c1c(O)c(-c2ccc(O)c(O)c2)oc2cc(O)cc(O)c12 [Compound F, 2-(3,4-Dihydroxyphenyl)-3,5,7-trihydroxychromen-4-one] | 15 | 5 | –
